Source: article PMC12037410, “Pharmacological targeting of BMAL1 modulates circadian and immune pathways” (Nature Chemical Biology, 2025)

Target: BMAL1 (Homo sapiens, UniProt O00327)
Parameters: PASB domain (residues 338–449); Protein thermal shift (PTS) fragment screen on recombinant human BMAL1(PASB), shift of melting temperature
Details: dTmB; binder

Chain of BMAL1 (O00327 338-449): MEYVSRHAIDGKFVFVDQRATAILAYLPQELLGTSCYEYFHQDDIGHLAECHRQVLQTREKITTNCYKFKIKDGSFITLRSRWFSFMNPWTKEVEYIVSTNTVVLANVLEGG

| SMILES | Bmal1(PASB) dTmB [°C] |
| --- | --- |
| NC1CCN(Cc2ccccc2)CC1 [Prestw-Frag-2060, Compound 207] | -0.05 |
| NCCc1ccc(O)cc1 [Prestw-Frag-2070, Compound 299] | -0.26 |
| Nc1cccnn1 [Prestw-Frag-2072, Compound 233] | -0.18 |
| Cc1cc(C2CCCCC2)n(O)c(=O)c1 [Prestw-Frag-2092, Compound 58] | -1.46 |
| CN(C)C(c1ccccc1)c1ccccc1 [Prestw-Frag-2100, Compound 331] | -1.24 |
| COc1ccc(C(F)(F)F)cc1 [Prestw-Frag-2108, Compound 203] | -0.12 |
| NC(N)=NCc1cccc(I)c1 [Prestw-Frag-2111, Compound 312] | -0.90 |
| COc1ccc2nc(SC)[nH]c2c1 [Prestw-Frag-2118, Compound 167] | 1.19 |
| NS(=O)(=O)c1ccc(C(=O)O)cc1 [Prestw-Frag-2123, Compound 82] | -0.15 |
| Cc1cc(=O)[nH]c(=S)[nH]1 [Prestw-Frag-2127, Compound 68] | -0.75 |
| NC(=O)c1ccccn1 [Prestw-Frag-2131, Compound 358] | -0.11 |
| Cc1nc2ccccc2[nH]1 [Prestw-Frag-2136, Compound 408] | -0.37 |
| O=C(O)Cc1cccs1 [Prestw-Frag-2140, Compound 161] | -0.19 |
| O=C1OCc2ccccc21 [Prestw-Frag-2144, Compound 404] | -0.23 |
| O=C(CCc1ccccc1)c1ccccc1O [Prestw-Frag-2152, Compound 434] | -0.33 |
| CC(C)NCC(O)c1ccccc1 (stereo not drawn) [Prestw-Frag-2168, Compound 193] | -0.58 |
| O=C1CNS(=O)(=O)c2ccsc21 [Prestw-Frag-2176, Compound 30] | -4.81 |
| Cc1c(C)c2c(c(C)c1O)CCC(C)(C)O2 [Prestw-Frag-2185, Compound 438] | 1.30 |
| COc1cc2c(cc1OC)C(C)NCC2 (stereo not drawn) [Prestw-Frag-2193, Compound 348] | -0.74 |

| SMILES | Bmal1(PASB) dTmB [°C] |
| --- | --- |
| CCOc1ccc(N)cc1 [Prestw-Frag-2201, Compound 146] | -0.64 |
| COc1ccc(OC)c(C(C)O)c1 (stereo not drawn) [Prestw-Frag-2208, Compound 283] | -0.43 |
| COc1ccc(CN2CCNCC2)cc1 [Prestw-Frag-2212, Compound 304] | -0.50 |
| c1ccc(CN2CCNCC2)cc1 [Prestw-Frag-2215, Compound 424] | -0.38 |
| O=C(Cc1ccccc1)c1ccccc1 [Prestw-Frag-2219, Compound 440] | -0.71 |
| OCC(O)COc1ccc(Cl)cc1 (stereo not drawn) [Prestw-Frag-2229, Compound 393] | 0.07 |
| CS(=O)(=O)c1ccc(CO)cc1 [Prestw-Frag-2234, Compound 220] | -0.40 |
| CC(O)(c1ccccc1)c1ccccc1 [Prestw-Frag-2235, Compound 444] | -1.59 |
| CC(O)(c1ccccc1)c1ccccn1 (stereo not drawn) [Prestw-Frag-2237, Compound 355] | -0.76 |
| OC(c1ccccc1)c1ccccn1 (stereo not drawn) [Prestw-Frag-2238, Compound 262] | -0.66 |
| CC(=O)c1ccc2c(c1)Nc1ccccc1S2 [Prestw-Frag-2239, Compound 65] | 0.31 |
| CCCCOc1cc(C(=O)OC)ccc1N [Prestw-Frag-2253, Compound 206] | -0.90 |
| Nc1nc2ccccc2o1 [Prestw-Frag-2256, Compound 309] | -0.33 |
| NC(=O)c1[nH]cnc1N [Prestw-Frag-2268, Compound 14] | -0.68 |
| c1ccc2c(c1)OCO2 [Prestw-Frag-2299, Compound 175] | -0.52 |
| OCc1ccncc1 [Prestw-Frag-2303, Compound 179] | -0.35 |
| OCc1cccnc1 [Prestw-Frag-2304, Compound 272] | -0.06 |
| Cc1cccc(C)c1N [Prestw-Frag-2313, Compound 365] | -0.18 |
| COc1cc(NS(=O)(=O)c2ccc(N)cc2)ncn1 [Prestw-Frag-2337, Compound 376] | 0.09 |

| SMILES | Bmal1(PASB) dTmB [°C] |
| --- | --- |
| COC(=O)c1ccc(N)cc1 [Prestw-Frag-2346, Compound 380] | -0.11 |
| N=C(N)CSCc1ccccc1 [Prestw-Frag-2348, Compound 201] | 0.25 |
| O=C(O)c1cc(=O)c2ccccc2o1 [Prestw-Frag-2352, Compound 352] | -0.25 |
| Clc1ccc(CNc2ccccn2)cc1 [Prestw-Frag-2356, Compound 344] | -0.84 |
| O=C1c2ccccc2CN1c1ccccc1 [Prestw-Frag-2360, Compound 56] | -0.56 |
| NC(=O)C(c1ccccc1)c1ccccc1 [Prestw-Frag-2366, Compound 415] | -0.76 |
| S=c1[nH]cc[nH]1 [Prestw-Frag-2373, Compound 253] | -1.25 |
| O=C(O)CCC(=O)Nc1ccccc1 [Prestw-Frag-2383, Compound 124] | -0.33 |
| O=C(C1COc2ccccc2O1)N1CCNCC1 (stereo not drawn) [Prestw-Frag-2389, Compound 381] | -0.24 |
| N#Cc1ccc[nH]c1=O [Prestw-Frag-2408, Compound 346] | -0.07 |
| Cn1ccccc1=O [Prestw-Frag-2410, Compound 227] | -0.12 |
| COC(=O)C(O)c1ccccc1 (stereo not drawn) [Prestw-Frag-2423, Compound 176] | 0.02 |
| CCN(CCCCO)C(C)Cc1ccc(OC)cc1 (stereo not drawn) [Prestw-Frag-2440, Compound 249] | -0.23 |
| Nc1ccccn1 [Prestw-Frag-2443, Compound 228] | 0.09 |
| COCCOC(=O)c1ccc(N)cc1 [Prestw-Frag-2453, Compound 317] | -0.58 |
| O=C1CCc2ccccc2N1 [Prestw-Frag-2464, Compound 16] | -2.13 |
| Nc1ccccc1S(N)(=O)=O [Prestw-Frag-2473, Compound 242] | 0.04 |
| CCOc1ccccn1 [Prestw-Frag-2477, Compound 94] | -0.05 |
| COC(=O)C(O)(c1ccccc1)C1CCCC1 (stereo not drawn) [Prestw-Frag-2484, Compound 442] | -1.34 |
